Data as given in US20080312255A1 (ASTRAZENECA AB, priority 2007, published 2008).
Structures can show the parent of a compound that is named as a salt.

Target: S. aureus GyrB ATPase (Staphylococcus aureus, UniProt P0A0K8)
Assay: S. aureus GyrB ATPase inhibition (ammonium molybdate/malachite green phosphate detection)
Type: biochemical
Details: compound concentration of 1 μM
Protocol: S. aureus GyrB ATPase Inhibition Activity: Compounds may be tested for inhibition of S. aureus GyrB ATPase activity using an ammonium molybdate/malachite green-based phosphate detection assay (Lanzetta, P. A., L. J. Alvarez, P. S. Reinach, and O. A. Candia, 1979, 100: 95-97). Assays can be performed in multiwell plates in 30 μl reactions containing: 50 mM Hepes buffer pH 7.5, 75 mM ammonium acetate, 8.0 mM magnesium chloride, 0.5 mM ethylenediaminetetraacetic acid, 5% glycerol, 1.0 mM 1,4-Dithio-DL-threitol, 200 nM bovine serum albumin, 1.0 μg/ml sheared salmon sperm DNA, 250 pM E. coli GyrA, 250 pM S. aureus GyrB, 250 μM ATP, and compound in dimethylsulfoxide. Reactions can be quenched with […] of ammonium molybdate/malachite green detection reagent containing 1.2 mM malachite green hydrochloride, 8.5 mM ammonium molybdate tetrahydrate, and 1 M hydrochloric acid. Plates can be read in an absorbance plate reader at 650 nm and percent inhibition values can be calculated using dimethylsulfoxide (2%)-containing reactions as 0% inhibition and EDTA-containing ([…]) reactions as 100% inhibition controls. An IC50 measurement of compound potency for each compound can be determined from reactions performed in the presence of 10 different compound concentrations.
Compounds of the invention were tested in an assay substantially similar to the assay described above for measuring the inhibition of S. aureus GyrB ATPase. Percent inhibition of S. aureus GyrB ATPase at a compound concentration of 1 μM (unless otherwise noted) is disclosed in the following table: […]

Sequence of S. aureus GyrB ATPase (P0AES4 whole entry): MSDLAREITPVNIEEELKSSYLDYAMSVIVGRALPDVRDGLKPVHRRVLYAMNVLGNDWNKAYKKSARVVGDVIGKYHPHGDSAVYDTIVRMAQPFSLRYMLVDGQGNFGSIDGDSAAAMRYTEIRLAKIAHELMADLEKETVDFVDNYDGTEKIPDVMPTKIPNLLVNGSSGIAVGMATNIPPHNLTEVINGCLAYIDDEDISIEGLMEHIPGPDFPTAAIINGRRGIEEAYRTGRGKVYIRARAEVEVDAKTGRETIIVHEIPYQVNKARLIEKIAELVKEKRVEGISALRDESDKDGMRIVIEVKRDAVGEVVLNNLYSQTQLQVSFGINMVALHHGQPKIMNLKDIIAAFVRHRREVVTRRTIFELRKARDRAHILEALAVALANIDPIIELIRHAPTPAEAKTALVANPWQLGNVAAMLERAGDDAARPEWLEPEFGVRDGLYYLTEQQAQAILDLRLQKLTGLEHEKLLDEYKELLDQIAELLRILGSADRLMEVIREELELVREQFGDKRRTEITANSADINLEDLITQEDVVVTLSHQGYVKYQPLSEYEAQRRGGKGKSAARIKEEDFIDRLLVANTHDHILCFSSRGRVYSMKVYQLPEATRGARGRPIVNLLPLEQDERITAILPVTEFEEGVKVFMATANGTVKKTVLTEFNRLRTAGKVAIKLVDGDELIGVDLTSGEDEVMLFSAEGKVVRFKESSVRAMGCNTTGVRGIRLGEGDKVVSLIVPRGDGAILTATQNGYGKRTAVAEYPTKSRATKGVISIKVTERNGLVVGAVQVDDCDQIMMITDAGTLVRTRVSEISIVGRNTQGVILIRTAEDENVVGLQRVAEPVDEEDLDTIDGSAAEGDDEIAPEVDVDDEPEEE
Sequence of S. aureus GyrB ATPase (P0A0K8 whole entry): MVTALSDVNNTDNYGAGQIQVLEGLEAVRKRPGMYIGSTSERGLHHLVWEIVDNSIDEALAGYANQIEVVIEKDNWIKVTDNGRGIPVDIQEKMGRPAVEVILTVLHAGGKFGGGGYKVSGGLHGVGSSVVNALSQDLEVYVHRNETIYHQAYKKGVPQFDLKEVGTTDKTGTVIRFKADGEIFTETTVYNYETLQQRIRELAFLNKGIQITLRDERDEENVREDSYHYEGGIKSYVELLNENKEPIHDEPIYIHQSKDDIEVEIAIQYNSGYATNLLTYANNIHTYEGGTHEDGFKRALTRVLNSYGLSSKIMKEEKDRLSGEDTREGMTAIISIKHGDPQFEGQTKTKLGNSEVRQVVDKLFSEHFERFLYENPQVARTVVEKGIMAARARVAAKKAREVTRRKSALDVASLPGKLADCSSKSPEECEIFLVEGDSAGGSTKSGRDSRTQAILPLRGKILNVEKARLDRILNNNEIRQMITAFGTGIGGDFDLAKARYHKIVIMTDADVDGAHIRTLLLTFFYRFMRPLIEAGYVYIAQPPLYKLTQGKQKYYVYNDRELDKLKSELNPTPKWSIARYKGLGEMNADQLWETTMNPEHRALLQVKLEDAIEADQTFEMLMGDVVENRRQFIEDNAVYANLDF

Cc1[nH]c(C(=O)N[C@@H]2CCN(c3nc(-c4nc5ccccc5s4)c(C(=O)O)s3)C[C@@H]2F)c(Cl)c1Cl [Example 15, 4-(1,3-Benzothiazol-2-yl)-2-((3S,4R)-4-{[(3,4-dichloro-5-methyl-1H-pyrrol-2-yl)carbonyl]amino}-3-fluoropiperidin-1-yl)-1,3-thiazole-5-carboxylic acid]
inhibition at 1 µM: 101%

CO[C@H]1CN(c2nc(-c3cc(N(C)C)nc(N(C)C)n3)c(C(=O)O)s2)CC[C@H]1NC(=O)c1[nH]c(C)c(Cl)c1Cl [Example 9, 4-[2,6-Bis(dimethylamino)pyrimidin-4-yl]-2-((3S,4R)-4-{[(3,4-dichloro-5-methyl-1H-pyrrol-2-yl)carbonyl]amino}-3-methoxypiperidin-1-yl)-1,3-thiazole-5-carboxylic acid]
inhibition at 1 µM: 102%

CCOC(=O)c1sc(N2CC[C@@H](NC(=O)c3[nH]c(C)c(Cl)c3Cl)[C@@H](OC)C2)nc1-c1cc(N(C)C)nc(N(C)C)n1 [Example 50]
inhibition at 1 µM: 97%

COC(=O)c1sc(N2CC[C@@H](NC(=O)c3[nH]c(C)c(Cl)c3Cl)[C@@H](OC)C2)nc1-c1nccs1 [Example 44]
inhibition at 1 µM: 99.6%

CCOC(=O)c1sc(N2CC[C@@H](NC(=O)c3[nH]c(C)c(Cl)c3Cl)[C@@H](F)C2)nc1-c1ncccc1F [Example 102, ethyl 2-((3S,4R)-4-(3,4-dichloro-5-methyl-1H-pyrrole-2-carboxamido)-3-fluoropiperidin-1-yl)-4-(3-fluoropyridin-2-yl)thiazole-5-carboxylate]
inhibition at 1 µM: 81.4%

CCOC(=O)c1sc(N2CC[C@@H](NC(=O)c3[nH]c(C)c(Cl)c3Cl)[C@@H](F)C2)nc1-c1cnccn1 [Example 55]
inhibition at 1 µM: 97.9%

COCCn1ccnc1-c1nc(N2CC[C@@H](NC(=O)c3[nH]c(C)c(Cl)c3Cl)[C@@H](OCc3ccccc3)C2)sc1C(=O)O [Example 143, 2-[(3S,4R)-3-(benzyloxy)-4-{[(3,4-dichloro-5-methyl-1H-pyrrol-2-yl)carbonyl]amino}piperidin-1-yl]-4-[1-(2-methoxyethyl)-1H-imidazol-2-yl]-1,3-thiazole-5-carboxylic acid]
inhibition at 1 µM: 98.8%

CCOC(=O)c1sc(N2CC[C@@H](NC(=O)c3[nH]c(C)c(Cl)c3C#N)[C@@H](OC)C2)nc1-c1ncccn1 [Example 105, ethyl 2-((3S,4R)-4-(4-chloro-3-cyano-5-methyl-1H-pyrrole-2-carboxamido)-3-methoxypiperidin-1-yl)-4-(pyrimidin-2-yl)thiazole-5-carboxylate]
inhibition at 1 µM: 103%

CO[C@H]1CN(c2nc(-c3ccn[nH]3)c(C(=O)O)s2)CC[C@H]1NC(=O)c1[nH]c(C)c(Cl)c1Cl [Example 23, 2-((3S,4R)-4-{[(3,4-Dichloro-5-methyl-1H-pyrrol-2-yl)carbonyl]amino}-3-methoxypiperidin-1-yl)-4-(1H-pyrazol-5-yl)-1,3-thiazole-5-carboxylic acid]
inhibition at 1 µM: 100%

Cc1[nH]c(C(=O)N[C@@H]2CCN(c3nc(-c4ncccc4F)c(C(=O)O)s3)C[C@@H]2F)c(Cl)c1Cl [Example 119, 2-((3S,4R)-4-(3,4-dichloro-5-methyl-1H-pyrrole-2-carboxamido)-3-fluoropiperidin-1-yl)-4-(3-fluoropyridin-2-yl)thiazole-5-carboxylic acid]
inhibition at 1 µM: 79.4%

CCOC(=O)c1sc(N2CC[C@@H](NC(=O)c3[nH]c(C)c(Cl)c3Cl)[C@@H](OC)C2)nc1-c1ccncn1 [Example 81]
inhibition at 1 µM: 100%

CO[C@H]1CN(c2nc(-c3n(C)cc[n+]3C)c(C(=O)O)s2)CC[C@H]1NC(=O)c1[nH]c(C)c(Cl)c1Cl [Example 22, 2-[5-Carboxy-2-((3S,4R)-4-{[(3,4-dichloro-5-methyl-1H-pyrrol-2-yl)carbonyl]amino}-3-methoxypiperidin-1-yl)-1,3-thiazol-4-yl]-1,3-dimethyl-1H-imidazol-3-ium trifluoroacetate]
inhibition at 1 µM: 101%
